Source: the METLIN SMRT retention time set (Domingo-Almenara et al. 2019)

Assay: gradient 5% acetonitrile 3 min, to 50% in 2 min, to 85% in 15 min, held 3 min, 100 µL/min
Conditions: column: Zorbax Extend-C18 2.1 x 50 mm; eluents: water / acetonitrile, 0.1% formic acid
Method in brief: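 Standards, all pure, were combined into mixtures of ~100 molecules and run at 100 μL/min on a Zorbax Extend-C18 column (2.1 × 50 mm, 1.8 μm) with water and acetonitrile, each containing 0.1% formic acid. A coupled quadrupole time-of-flight mass spectrometer operated in positive and negative ionization mode. Retention time values come from computationally picked adduct peaks, each inspected manually.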

Row | SMILES | RP-LC retention time [s]
1 | Cc1ccccc1Cc1c(C)nc2nc(SCC(=O)NCCN3CCOCC3)nn2c1C | 655
2 | CCn1c(C(=O)NCc2ccc(F)cc2)cc2sc(Cl)cc21 | 1140
3 | O=S(=O)(Nc1cccc(Cl)c1)c1c[nH]c2ncccc12 | 765
4 | Cc1ccc(NC(=O)Cn2ccc3ccc(-c4nnc(C)o4)cc32)cc1 | 824
5 | CCOC(=O)C1=C(CN2CCN(c3ccccc3F)CC2)NC(=O)NC1c1cccc(OC)c1OC (stereo not given) | 730
6 | O=C(C1CCCN(c2ncnc3c2nc2n3CCCCC2)C1)N(Cc1ccco1)C1CCCC1 (stereo not given) | 950
7 | Cc1ccnc(Nc2nc(-c3ccc(C)cc3C)cs2)c1 | 859
8 | CC(C)(C)c1csc(NC(=O)C2CC(=O)N(c3n[nH]c4cccc(F)c34)C2)n1 (stereo not given) | 838
9 | O=C(Nc1cccnc1)C1CCc2nc(N3CCCCC3)ncc2C1 (stereo not given) | 583
10 | O=S(=O)(c1ccc2nc(N3CCN(C4CCCCC4)CC3)ccc2c1)N1CCCCC1 | 734
11 | O=C(c1cccs1)N1CCCC1c1nc(-c2ccc(F)cc2F)no1 (stereo not given) | 926
12 | COc1ccc2[nH]cc(CCO)c2c1 | 660
13 | Fc1ccccc1-c1nnc(SCc2cccc(C(F)(F)F)c2)o1 | 1070
14 | COc1ccc(N2C(=O)CSC2c2ccc(Cl)cc2)cc1 (stereo not given) | 877
15 | CCn1c(=O)c(NCCc2ccc(Cl)cc2)nc2ccncc21 | 596
16 | CC1=C(C(=O)OCCC#N)C(c2ccccc2F)NC(=O)N1 (stereo not given) | 645
17 | Cc1ccccc1Nc1c(-c2ccccc2)nc2c(C)cccn12 | 733
18 | Cc1ccc(S(=O)(=O)N2CCC(F)(c3nc(CC(C)C)no3)CC2)cc1F | 1200
19 | O=C(NCc1ccc(F)cc1)C1CCN(C(=O)c2ncn3c2COC(c2ccc(F)cc2)C3)CC1 (stereo not given) | 784
20 | Cc1ccccc1NS(=O)(=O)c1cc(-c2nc(C(C)(C)C)cs2)cs1 | 1260
21 | Cc1c(F)cccc1NC(=O)C1CCc2nc(N3CCOCC3)ncc2C1 (stereo not given) | 808
22 | CC(C)Cn1cc(CCNC(=O)Nc2cccc(Cl)c2)c2cccnc21 | 895
23 | O=C(Nc1ccc(N2CCOCC2)c(Br)c1)c1ccc2c(c1)OCCCO2 | 959

Row | SMILES | RP-LC retention time [s]
24 | CCCNC(=O)Cc1c(C)nc2nc(-c3ccccc3)nn2c1C | 704
25 | CNC(=O)C1CCCN(c2nc3ncn(CC(=O)Nc4c(C)cccc4C)c(=O)c3s2)C1 (stereo not given) | 661
26 | CCN1C(=O)C(C)(C(=O)NCc2ccc(OC)cc2)Oc2cccnc21 (stereo not given) | 803
27 | O=C1CCCc2nc(Nc3nc(-c4ccccc4)c4cc(Cl)ccc4n3)ncc21 | 922
28 | CCCN1C(=O)C2(NCCc3c2[nH]c2ccc(OC)cc32)c2cc(Br)ccc21 (stereo not given) | 729
29 | COc1ccc(-c2nc(-c3ccc4c(c3)oc(=O)n4C(C)C)no2)cc1OC | 1070
30 | CCn1cc(-c2ccccc2)cc1C(=O)NC(C)c1cccnc1 (stereo not given) | 692
31 | Cc1nnc(N2CCCC(C(=O)Nc3ccccc3Cl)C2)c2nn(-c3ccccc3)c(C)c12 (stereo not given) | 767
32 | O=S(=O)(CCc1noc(-c2cc(F)cc(F)c2)n1)c1ccccc1 | 939
33 | Cc1ccc2nc(SCc3noc(CCC(=O)Nc4nc(-c5ccccc5)cs4)n3)[nH]c2c1 | 802
34 | CCOC(=O)N1CCN(c2ncc(C(=O)Nc3ccc(OC)cc3)c(N)n2)CC1 | 679
35 | CC1CCN(C(=O)c2cc(S(=O)(=O)N3CCC(C(=O)NC4CC4)CC3)cn2C)CC1 | 681
36 | Cc1cc(C)n(CCC(=O)N2CCCn3ccnc3C2C2CCCC2)n1 (stereo not given) | 604
37 | CCN(CC)Cc1ccc2cc(COC(=O)Nc3ccc(C(=O)NO)cc3)ccc2c1 | 654
38 | Clc1ccc(OCc2nc(-c3cccnc3)n[nH]2)cc1 | 634
39 | O=C(Nc1cccc(Cl)c1)c1cn(CC(O)c2ccc3c(c2)OCO3)nn1 (stereo not given) | 863
40 | CCCCOc1ccc(C(=O)Nc2cccc3c2C(=O)NC3=O)cc1 | 1020
41 | CN(C)C(=O)c1ccc2c(c1)N(CC(=O)NC1CCCCCCC1)C(=O)CS2 | 769
42 | CC(C)OCCCNC(=O)C1Cn2cccc2C(=O)N1C (stereo not given) | 621
43 | CCCN1CCN(C(=O)c2sc3ncn(CC(=O)N4CCCCC4C)c(=O)c3c2C)CC1 (stereo not given) | 596
44 | Cc1cccc(N2C(=O)CN(S(C)(=O)=O)CC2(C)C(=O)NCc2ccc(Cl)cc2)c1C (stereo not given) | 903
45 | Cc1[nH]c(C(=O)N2CCC(CC(=O)NCCN3CCCCCC3)CC2)c(C)c1C | 626
46 | O=C(CC1CCCC1)NCCC1CCN(C(=O)Nc2cc(F)ccc2F)CC1 | 847

Row | SMILES | RP-LC retention time [s]
47 | CCn1c(C(=O)N2CCCC(C(=O)N3CCN(c4ccc(OC)cc4)CC3)C2)cc2sccc21 (stereo not given) | 885
48 | O=C(NCC(F)(F)F)c1ccc(=O)[nH]c1 | 534
49 | CS(=O)(=O)N[C@H]1C[C@@H]2C[C@H]1N(C(=O)Cc1c(F)cccc1Cl)C2 | 717
50 | O=C(Cn1ccc2c(SCc3ccccc3)nccc21)NCCCN1CCCC1 | 587
51 | COc1cccc(CCC(=O)Nc2cnn(-c3ncc(N4CCCCC4)cn3)c2)c1 | 890
52 | CCCn1nccc1-c1csc(S(=O)(=O)N2CCC3(CC2)OCCO3)c1 | 906
53 | CC(=O)c1ccc(NC(=O)CSc2ncc(-c3ccc(C)c(C)c3)o2)cc1 | 970
54 | CCN(CC)S(=O)(=O)c1ccc2c(c1)N(CC(=O)NCCc1ccco1)C(=O)C1CCCCN21 (stereo not given) | 693
55 | Cc1ccc(-n2nc(C)c(S(=O)(=O)Nc3ccc(S(N)(=O)=O)cc3)c2C)cc1 | 765
56 | CCOC(=O)c1c(C)oc2nc(C)nc(N3CCc4cc(OC)c(OC)cc4C3C)c12 (stereo not given) | 1060
57 | COc1cc(OC)cc(-c2noc(Cn3c(=O)n(CC(C)C)c(=O)c4ccccc43)n2)c1 | 1160
58 | Cc1nc(-c2ccncc2)nc2c1CCC(=O)N2Cc1cccnc1 | 553
59 | Cc1ccc(CNC(=O)c2nnc(-c3oc4c(C)cccc4c3C)o2)o1 | 1140
60 | COc1ccc(-c2nc(N3CCC(C)CC3)c3ccccc3n2)cc1 | 860
61 | COc1ccc(-c2noc(-c3ccc(N4CCN(C5CCCCC5)CC4)nc3)n2)cc1 | 778
62 | COCCN1C(=O)c2ccccc2C(C(=O)NCC2COc3ccccc3O2)C1c1ccc(F)cc1 (stereo not given) | 954
63 | CCc1cc(-c2csc(S(=O)(=O)NCCCc3ccccc3)c2)on1 | 1060
64 | CCn1c(=O)c(N2CCCC(C(=O)NCCc3ccco3)C2)nc2cccnc21 (stereo not given) | 828
65 | CCN1C(=O)C2(C(C#N)=C(N)Oc3n[nH]c(-c4ccccc4)c32)c2ccccc21 (stereo not given) | 733
66 | CCn1c(-c2ccccc2)cc(C(=O)N(C)C)c1C | 697
67 | CCNc1cc(N2CCCC(CCC(=O)NCCN3CCN(C)CC3)C2)ncn1 (stereo not given) | 541
68 | Cc1ccc(C)c(S(=O)(=O)N2CCCCCC2c2nnc(C)o2)c1 (stereo not given) | 908
69 | CCOc1ccc(NC(=O)Nc2nccn(-c3cc(Cl)ccc3C)c2=O)cc1 | 1060

Row | SMILES | RP-LC retention time [s]
70 | O=C(CSc1ncnc2c1cnn2-c1ccc(Cl)cc1)NCc1ccco1 | 954
71 | CN1C(=O)c2cccn2CC1C(=O)N1CCc2ccccc21 (stereo not given) | 703
72 | COc1ccc(OC)c(S(=O)(=O)Cc2nc(-c3cccc(Br)c3)no2)c1 | 1030
73 | CCOC(=O)c1c(CN2CCOCC2)n(C)c2cc(Br)c(OC)cc12 | 698
74 | COc1ccc(C2C(C(=O)NCc3ccccc3OC)c3ccccc3C(=O)N2C)cc1 (stereo not given) | 864
75 | Cc1c(C(=O)N2CCCCC2)cnn1-c1ccc(-c2nc(C3CC3)no2)cn1 | 1010
76 | COC(=O)c1sc2cccc(F)c2c1S(=O)(=O)N1CCN(c2ccccn2)CC1 | 725
77 | COc1ccc(NC(=O)C2CCCN(C(=O)C3Sc4ccccc4NC3=O)C2)cc1 (stereo not given) | 750
78 | c1ccc(-c2nc3cc(-c4noc(-c5ccncc5)n4)ccc3o2)cc1 | 1290
79 | Cc1noc(-c2ccc(OC3CN(C(=O)C4CCOC4)C3)cc2)n1 (stereo not given) | 695
80 | Cc1ccc(C(=O)NC2CCN(c3cc(-c4cccs4)[nH]n3)C2)cc1C (stereo not given) | 726
81 | O=C(Nc1cc(F)ccc1F)c1cc2sccc2n1Cc1ccc(Cl)cc1 | 1280
82 | CCc1nc2c(NC(=O)c3ccc(C)cc3C)cccn2n1 | 920
83 | O=C1CC(NC(=O)C2c3ccccc3Oc3ccccc32)CN1 (stereo not given) | 638
84 | COc1ccc(NC(=O)C2c3cc(OC)c(OC)cc3C(=O)N(C)C2c2cccnc2)c(OC)c1 (stereo not given) | 655
85 | Cn1nc(C(=O)N2CCCCC2)c2c1CCN(C(=O)Nc1ccc3c(c1)OCO3)C2 | 717
86 | O=C(C1CCCCC1)N1CCC(F)(C(=O)NC2CC2)CC1 | 637
87 | Cc1nccn1Cc1nc(-c2ccc(F)cc2)no1 | 614
88 | Cc1nc(-c2cc3cccc(C)c3nc2N2CCN(c3ccc(F)cc3)CC2)no1 | 732
89 | COc1ccc(CNC(=O)c2[nH]c3cc(C)sc3c2CN(C)C)c(OC)c1 | 691
90 | Cc1noc(C)c1S(=O)(=O)N1CCC(C(C)C(=O)NCCc2c[nH]c3ccccc23)CC1 (stereo not given) | 858
